Patent US11505576B2, “Polypeptides based on a scaffold” (AFFIBODY AB, priority 2018, dated 2022)

Assays:
[1] = target: C4; assay: Kinetic analysis using surface plasmon resonance (Biacore T200), immobilized C4; assay type: binding; settings: Table 7; MGSSHHHHHHGSS-[Y#####]-A
Experimental: Kinetic constants (ka and kd) and affinities (KD) were determined for His6-tagged Y variants using a Biacore T200 instrument (GE Healthcare). Target proteins C4, IL-6 and insulin, respectively, were immobilized in separate flow cells on the carboxylated dextran layer of different CM5 chip surfaces (GE Healthcare). Immobilization was performed using amine coupling chemistry according to the manufacturer's protocol and PBS pH 7.4 supplemented with 0.1 Tween20 (PBST 0.1%) as running buffer. The ligand immobilization levels on the surfaces were 3280-8830 RU for C4, 495-1184 RU for IL-6, and 270-282 RU for insulin. One flow cell surface on each chip was activated and deactivated for use as blank during analyte injections. In the kinetic experiment, PBST 0.1% was used as running buffer at a flow rate of 30 μl/min. The analytes, i.e. Y variants, were each diluted in PBST 0.1 buffer at concentrations of 1000, 500, 100, 50 and 10 nM and injected for 5 min, followed by dissociation in running buffer for 3 min. After dissociation, the surfaces were regenerated with one injection of 30 μl 10 mM HCl. Kinetic constants were calculated from the sensorgrams using the Langmuir 1:1 model of Biacore T200 Evaluation software 2.0 (GE Healthcare).
Produced Y variants were subjected to CD and SPR analyses according to the methods described in Example 1.
The Y variants were cloned, produced and characterized according to the general methods described in Example 1. Produced Y variants with point mutations and/or N-terminal or C-terminal extensions were subjected to CD and SPR analyses as described in Example 1.
Produced Y variants were subjected to CD and SPR analyses according to the methods described in Example 1. In addition, CD spectra of selected IL-6 binding variants were also recorded at 60, 70, 80 and 90° C.

[2] = Circular dichroism spectroscopy analysis (CD spectra, variable temperature measurement, refolding); assay type: physicochemical; settings: Table 7; MGSSHHHHHHGSS-[Y#####]-A
Summary of the method: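 Y variants at 0.5 mg/ml in PBS were scanned from 250 to 195 nm at 20° C. in a 1 mm cell. Tm came from the 221 nm signal during heating from 20 to 90° C. at 5° C./min, and a second 20° C. spectrum after heating assessed refolding. Selected IL-6 binders were also recorded at 60, 70, 80 and 90° C.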

[3] = Fraction of soluble product on expression in E. coli, estimated from SDS-PAGE; assay type: physicochemical; settings: Table 7; Ylib002Naive.I selection; MGSSHHHHHHGSS-[Y#####]-A
Summary of the method: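 E. coli T7E2 cultures with 50 μg/ml kanamycin were grown at 30-37 °C (EnPresso), induced with 0.5 mM IPTG at OD600 ~10 and harvested after 16 h. Alternatively, cultures were grown at 37 °C in TSB-YE, induced with 0.2 mM IPTG at OD600=2 and harvested after 5 h. Soluble and insoluble fractions were estimated by SDS-PAGE.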

| Substance | Kd [1] | ka [1] | kd [1] | Tm [2] | Estimated soluble fraction [3] |
| --- | --- | --- | --- | --- | --- |
| Y02303: C4 binding Y variant from Ylib002Naive.I, SEQ ID NO:34 (LAEAKEAAIAELDSKGVGAEEIKWIQNAWSVEGVQIMKQQILAELPA; Engineered C4 binding Y variant) | 2200 nM | 96000 M⁻¹ s⁻¹ | 0.21 s⁻¹ | 43 °C | 100% |
| Y02309: C4 binding Y variant from Ylib002Naive.I, SEQ ID NO:35 (LAEAKEAAIAELDSKGVGADLIKKIQKAESVEGVQFWKQEILATLPA; Engineered C4 binding Y variant) | 70 nM | 36000 M⁻¹ s⁻¹ | 0.0025 s⁻¹ | 56 °C | 100% |
| Y02330: C4 binding Y variant from Ylib002Naive.I, SEQ ID NO:37 (LAEAKEAAIAELDSKGVGAELIKKIQHAESVEGVQFWKQEILAYLPA; Engineered C4 binding Y variant) | 48 nM | 96000 M⁻¹ s⁻¹ | 0.0046 s⁻¹ | 49 °C | 100% |
| Y02337: C4 binding Y variant from Ylib002Naive.I, SEQ ID NO:38 (LAEAKEAAIAELDSKGVGAAEIKWIQHASTVEGVQGRKQQILAELPA; Engineered C4 binding Y variant) | 1900 nM | 420000 M⁻¹ s⁻¹ | 0.81 s⁻¹ | 31 °C | 100% |
| Y02358: C4 binding Y variant from Ylib002Naive.I, SEQ ID NO:39 (LAEAKEAAIAELDSKGVGADDIKLIQDAPSVEGVQEIKQFILAQLPA; Engineered C4 binding Y variant) | 16 nM | 90000 M⁻¹ s⁻¹ | 0.0014 s⁻¹ | 51 °C | 100% |
